This note sets out measurements from EP4806892A1, “CEREBLON E3 UBIQUITIN LIGASE INHIBITOR” (GAN & LEE PHARMACEUTICALS CO., LTD., priority 2023, dated 2025).

One experiment addresses T1, AR protein (Homo sapiens, UniProt P10275).
T1 construct: AR-positive human prostate cancer cells VCaP (cell source: ATCC); host or cells: VCaP
T1 sequence (P10275 1-920): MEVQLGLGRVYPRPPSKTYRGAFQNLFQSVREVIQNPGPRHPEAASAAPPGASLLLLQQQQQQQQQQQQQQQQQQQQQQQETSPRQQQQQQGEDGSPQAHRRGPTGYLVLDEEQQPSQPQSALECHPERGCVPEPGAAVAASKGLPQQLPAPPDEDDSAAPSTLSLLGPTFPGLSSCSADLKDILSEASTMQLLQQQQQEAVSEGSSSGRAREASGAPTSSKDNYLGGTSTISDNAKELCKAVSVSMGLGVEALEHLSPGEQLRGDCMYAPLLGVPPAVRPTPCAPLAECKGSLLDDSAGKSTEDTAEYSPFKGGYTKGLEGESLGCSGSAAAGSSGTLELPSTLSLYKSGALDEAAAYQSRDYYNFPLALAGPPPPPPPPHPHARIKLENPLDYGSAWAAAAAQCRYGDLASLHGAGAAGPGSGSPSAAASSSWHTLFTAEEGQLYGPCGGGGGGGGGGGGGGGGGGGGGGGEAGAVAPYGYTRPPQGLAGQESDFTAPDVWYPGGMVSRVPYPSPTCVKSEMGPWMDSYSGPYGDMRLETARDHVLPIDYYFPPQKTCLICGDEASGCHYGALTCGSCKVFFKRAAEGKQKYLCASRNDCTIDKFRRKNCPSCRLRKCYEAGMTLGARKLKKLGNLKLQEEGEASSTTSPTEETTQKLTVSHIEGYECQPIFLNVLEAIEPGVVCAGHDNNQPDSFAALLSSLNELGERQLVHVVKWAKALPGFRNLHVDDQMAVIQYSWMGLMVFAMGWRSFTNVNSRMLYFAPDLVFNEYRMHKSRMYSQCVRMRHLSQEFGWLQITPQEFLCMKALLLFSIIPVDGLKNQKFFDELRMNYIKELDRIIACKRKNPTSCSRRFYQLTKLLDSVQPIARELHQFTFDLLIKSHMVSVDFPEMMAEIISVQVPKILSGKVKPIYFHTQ
The experiment is described as follows: AR protein degradation in VCaP cells (Western blot). Type of experiment: cell-based. Particulars: 8h. The protocol: AR-positive human prostate cancer cells VCaP (cell source: ATCC) were cultured in DMEM (GiBco catalog number 11995-065) containing 10% FBS (Hyclone catalog number SH30406.05), and the cells were inoculated in a six-well microplate (Thermo catalog number 140675) at a density of 3 × 10^5 cells/well. After being cultured overnight in a carbon dioxide incubator (ESCO), the prepared compound of the present invention and the positive control sample ARV-766 (energy chemical) solution of different concentrations were added at a volume of 1 µL/well to make the final concentrations of the compound and the positive control sample reach 5nM and 0.5nM, respectively. At the same time, the corresponding solvent control was set and cultured for 8h. After 8h of culture, the culture medium was removed, and the cells were washed with PBS. RIPA lysis buffer containing 1% Protease Inhibitor Cocktail was added. After lysis and centrifugation, a total protein extract was obtained, and the protein concentration in the extract was detected by BCA method. Protein electrophoresis was performed using SDS-PAGE, and then the protein was transferred to a PVDF (Millipore Sigma catalog number PSRP010R5) membrane at a constant voltage of 100V for 60min. The PVDF membrane was placed in a 5% milk powder 1×TBST solution and blocked at room temperature for 1h. The primary antibody solution (Anti-Androgen receptor, Cell Signaling Technology catalog number: 5153S; 1:2000 dilution) was prepared and incubated at 4°C overnight. The primary antibody solution was discarded and the PVDF membrane was washed with 1×TBST for 5 minutes each time, three times. The secondary antibody solution (Thermo catalog number SA5-35571; 1:7500 dilution) was prepared and incubated at room temperature for 1 hour. The secondary antibody solution was discarded and the PVDF membrane was washed with 1×TBST for 5 minutes each time, three times. A dual-color infrared laser imaging system (Licor catalog number Odyssey CLX) was used for Western membrane imaging. The Image Studio software was used to analyze the grayscale of the bands. GAPDH protein bands were also detected for each sample as an internal reference. The AR protein degradation rate of the compound and the positive control sample was calculated based on the grayscale of the protein bands. Among them, "A" means degradation rate ≥ 50%, "B" means 50%> degradation rate ≥ 20%, "C" means 20% degradation rate ≥ 10%, and "D" means degradation rate less than 10%.

Another experiment has as its target E3 ubiquitin ligase CRBN (Homo sapiens, UniProt Q96SW2). In words: CRBN competitive binding assay (HTRF, thalidomide-XL665 displacement). Particulars: competition with XL665-labeled thalidomide for GST-tagged CRBN protein, 3 hours at room temperature; read-out: IC50. The protocol:
CRBN binding activity test kit (CEREBLON BINDING KITS (PE, 64BD CRBN PEG)).
The detection is based on homogeneous time-resolved fluorescence (HTRF) technology.
This kit uses a europium-labeled GST antibody (GST Eu Cryptate Antibody) as the donor and XL665-labeled thalidomide (Thalidomide-Red reagent) as the receptor. The donor binds to the GST-tagged CRBN protein.
The donor and acceptor were each diluted 50-fold using the buffer (PROTAC binding buffer 1) in the kit. The CRBN protein was diluted 45-fold. The 8 mM compound solution disclosed in the present invention was diluted 10-fold using the diluent (1 X diluent) in the kit, and then the dilutd solution was subjected to 5-fold gradient dilution of the diluent, diluted 7 times sequentially. […] The mixture was incubated at room temperature for 3 hours. The ratio of the acceptor and donor emission signals for each individual well was calculated.
IC50 value was calculated based on compound concentration, Ratio, and coefficient of variation using GraphPad Prism.
A general note: Time-resolved FRET reads energy transfer from a long-lived donor to a nearby acceptor.

The next experiment deals with TNFα. The experiment is described as follows: LPS-induced TNFα secretion by PBMC (HTRF detection). Type of experiment: cell-based. Particulars: Homo sapiens, hPBMC, 20 hours compound then LPS 200 ng/mL for 5 hours, read-out: IC50 (inhibition of LPS-induced TNFα). As for the experimental part: (§1) After thawing, cryopreserved hPBMC (FPB003F-C, Shanghai OriBiotech) cells were resuspended in RPMI 1640 medium (30-2001,ATCC) containing 10% inactivated FBS (10099141C, Gibco) and cultured overnight at 37°C and 5% CO2. The next day, hPBMC cells were seeded in a 96-well cell culture plate at a density of 2 × 10^5 cells/well/100 µL (2 × 10^6 cells/mL), and 100 µL of compound in dimethyl sulfoxide solution (final concentration 0.0064-2500 nM) was added. […] The cell plate was placed in a 37°C, 5% CO2 incubator for 5 hours, and then centrifuged at 1000 rpm for 15 minutes. 100 µL of cell supernatant was collected from each well for cytokine concentration testing, which was tested immediately or frozen at -80°C for testing.
The TNFα concentration in the supernatant of LPS-induced THP-1 cells was determined using the TNF […] detection kit (62[…], PerkinElmer).
TNFα standard solutions of varying concentrations were prepared according to the product instructions, ranging from 0 to 2500 pg/mL. Equal volumes of Eu Cryptate antibody (1×) and d2 antibody (1×) were used to prepare the antibody mixture. 16 µL of standard solution or sample supernatant and 4 µL of the antibody mixture were added to each well of a 384-well white plate. The mixture was centrifuged at 800 rpm for 1 minute and incubated at room temperature for 2 hours. The absorbance at 620 nm and […] was read using a microplate reader (SPARK m1000pro, TECAN). A standard curve was plotted using the signal values of each TNFα standard solution. The TNFα concentration in each sample was determined based on the corresponding concentration of the signal value on the standard curve. The inhibitory rate of the compound on LPS-induced TNFα expression in THP-1 cell supernatants at different drug concentrations was calculated based on the TNFα concentration. The inhibition rate data were plotted in GraphPad Prism 8.0 software, and the IC50 value was calculated. Inhibition Rate = [1−(OD(Sample)−OD(Blank))/(OD(Control)−OD(Blank))] × 100% [formula] Table 9: Degradation effect of example compounds on IRAK4 in PBMC cells

Another experiment has as its system IL-6. The experiment is described as follows: LPS-induced IL-6 secretion by hPBMC (ELISA). The experiment is classed as cell-based. Particulars: Homo sapiens, 20 h compound then LPS 200 ng/mL for 5 h; for inhibition at […]: 2500nM, read-out: Inhibition Rate of IL-6 (2500nM). The protocol: as §1, with “OriBiotech.)” for “OriBiotech)”, “(30-2001, ATCC)” for “(30-2001,ATCC)”, “h,” for “hours,”, “min.” for “minutes.”, “awhich” for “which”
The IL-6 concentration in the supernatant of hPBMC cells induced by LPS was determined using a Human IL-6 ELISA kit (D6050, RD).
IL-6 standard solutions of varying concentrations were prepared according to the product instructions, ranging from 0 to 300 pg/mL. 100 µL of Assay Diluent RD1W and 100 µL of standard solution or sample supernatant were added to a pre-coated ELISA plate and incubated at room temperature for 2 hours. After washing the plate four times with 1× wash buffer, then 200 µL of Human IL-6 Conjugate was added and incubated at room temperature for 2 hours. After washing the plate four times with 1× wash buffer, then 200 µL of Substrate Solution was added and incubated at room temperature for 20 minutes. Finally, 50 µL of Stop Solution was added to terminate the reaction. The absorbance at 450 nm and 570 nm were read using a microplate reader (SPARK m1000pro, TECAN). The standard curve was plottd by the signal value of each concentration of IL-6 standard solution, and the IL-6 concentration in each sample was determined according to the corresponding concentration of the signal value of each well on the standard curve. The inhibition rate of the compound on LPS-induced IL-6 in the hPBMC cell supernatant at different drug concentrations was calculated according to the IL-6 concentration. The inhibition rate data were plotted in GraphPad Prism 8.0 software to calculate the IC50 value. Inhibition Rate = [1−(OD(sample)−OD(blank))/(OD(control)−OD(blank))] × 100% [formula] Table 10: Inhibitory effect of Example compounds on LPS-induced IL-6 secretion by hPBMC
A general note: In an ELISA, binding on a coated surface is turned into a signal by an enzyme label.

For the molecule `C[C@H]1CC2(CCN(c3ccc(C(=O)N4CCC(F)(CN5CCC6(CC5)COc5cc(N7CCC(=O)NC7=O)ccc56)CC4)cc3)CC2)CN1c1ccc(C#N)c(Cl)c1` [A-P-265, (S)-2-chloro-4-(8-(4-(4-((6-(2,4-dioxotetrahydropyrimidin-1(2H)-yl)-2H-spiro[benzofuran-3,4'-piperidine]-1'-yl)methyl)-4-fluoropiperidine-1-carbonyl)phenyl)-3-methyl-2,8-diazaspiro[4.5]dec-2-yl)benzonitrile], the “Degradation rate of AR protein in VCAP cells” value on AR protein (0.5 nM) is given as “B (50%> degradation rate ≥ 20%)”; at AR protein (5 nM), “A (degradation rate ≥ 50%)”. On to `COc1cc2c(cc1N1CCC(=O)NC1=O)OCC[C@H]1CNCCN21` [Example B14, (S)-1-(10-methoxy-2,3,4,4a,5,6-hexahydro-1H-benzo[b]pyrazino[1,2-d][1,4]oxazepin-9-yl)dihydropyrimidine-2,4(1H,3H)-dione], for which the IC50 at E3 ubiquitin ligase CRBN turned out to be 5400 nM.

Turning to `O=C1CCN(c2cc3c(cc2Cl)N2CCNC[C@@H]2CCO3)C(=O)N1` [Example B15, (S)-1-(10-chloro-2,3,4,4a,5,6-hexahydro-1H-benzo[b]pyrazino[1,2-d][1,4]oxazepin-9-yl)dihydropyrimidine-2,4(1H,3H)-dione], the IC50 at E3 ubiquitin ligase CRBN was determined as 3700 nM.

`O=C1CCN(c2ccc3c(c2)CC2(CO3)CN(CC3CCN(C(=O)C4CCC(n5cc(NC(=O)c6cnn7ccc(N8CC9CC8CO9)nc67)c(C(F)F)n5)CC4)CC3)C2)C(=O)N1` (stereo not shown) [IR-P-6]: the IC50 with TNFα came to 95.6 nM. In addition, the inhibition at […] in the experiment with IL-6 stood at 65%.

For the molecule `O=C1CCN(c2ccc3c(c2)CC2(CCN(CC4CCN(C(=O)C5CCC(n6cc(NC(=O)c7cnn8ccc(N9CC%10CC9CO%10)nc78)c(C(F)F)n6)CC5)CC4)CC2)O3)C(=O)N1` (stereo not shown) [IR-P-7], the inhibition at […] in the experiment with IL-6 turned out to be 46%.

In the case of `Cn1c(=O)n(C2CCC(=O)NC2=O)c2cccc(C#CCOC3CCN(C[C@H]4CC[C@H](n5cc(NC(=O)c6cnn7ccc(N8C[C@H]9C[C@@H]8CO9)nc67)c(C(F)F)n5)CC4)CC3)c21` (stereo partly shown) [KT-474, reference compound], the IC50 with TNFα came out at 52.3 nM. Also, the inhibition at 0.02 µM in the experiment on IL-6 (20nM, read-out: Inhibition Rate of IL-6 (20nM)) was 63%. In addition, in the experiment with IL-6, the inhibition at […] came to 85%.

For orientation: IC50 means the concentration that gives 50% inhibition. By inhibition is commonly meant the drop in the measured response relative to a control, in per cent.
